Results reported in PMC3612106, “Metabolism of BYZX in Human Liver Microsomes and Cytosol: Identification of the Metabolites and Metabolic Pathways of BYZX” (PLoS ONE, 2013).
Read-outs that look alike come from different tables or passages of the source.

How the values were obtained:
[1] = tested on: formation of M2 from BYZX in human liver cytosol; test: in vitro; assay type: in vitro ADME; conditions: 100 µM inhibitor, 20 µM BYZX, human liver cytosol (Fig. 6B)
Procedure: (§1) Some reductase inhibitors and substrate were used to inhibit the hydrogenate reaction of BYZX. 20 µM BYZX was incubated with 100 µM dicoumarol in human liver cytosol and was incubated with 100 µM benzylideneacetone and with 20 µM finasteride in HLMs, respectively.

[2] = tested on: reductase-mediated hydrogenation of BYZX (formation of M2); test: in vitro; assay type: in vitro ADME, human; conditions: human
Procedure: as §1

[3] = tested on: formation of M2 from BYZX in HLMs; test: Inhibition of BYZX hydrogenation in HLMs; assay type: in vitro ADME, human; conditions: 20 µM BYZX
Procedure: as §1

[4] = Metabolism and kinetics in pooled HLMs; assay type: in vitro ADME, human; conditions: for K m of N-des-ethylation: HLMs 0.4 mg/mL; for microsomal CLint: pooled human liver microsomes
Procedure: BYZX (20 µM) was incubated in a 200 µL of reaction buffer solution containing 0.1 M Tris-HCl (pH 7.4), 0.15 M MgCl2, NADPH-generating system (9.7 mM dl-isocitrate trisodium and 0.07 unit of isocitrate dehydrogenase), and 1 mg/mL pooled HLMs. The incubation mixture was preincubated at 37°C for 5 min, and then the reaction was initiated by adding 4 µL of NADP/NADPH solution (0.026 M NADP and 0.012 M NADPH in 1% NaHCO3 solution). After incubation at 37°C for 120 min, 200 µL of cold methanol was added to terminate the reaction and precipitate the protein. The mixture was vortexed for 1 min and centrifuged at 13 000 rpm for 15 min. 7 µL of the supernatant was injected into the LC system.
(§2) Moreover, very small amount of M3 was isolated from pooled incubation samples by HPLC-UV on an ODS column with a gradient solvent system consisting of methanol and 10 mM ammonium formate in water. Then, M3 were incubated in pooled HLMs, recombinant CYPs, and human cytosol to confirm the further metabolism.
(§3) The kinetics studies were performed using human liver cytosol, HLMs, and recombinant human CYP3A4 and CYP2C8. Before the kinetic study, the incubation time and the enzyme concentration for linear formation of metabolites were optimized. The concentrations of cytosol, HLMs, CYP3A4 and CYP2C8 protein were 0.4, 0.4, 0.04 and 0.1 mg/mL, respectively. The incubation times of HLMs, CYP3A4 and CYP2C8 were […], respectively. […] The following equation was applied, assuming a Michaelis–Menten equation: V = V max× [S]/(K m+[S]), where V is the rate of reaction, V max is the maximum velocity, K m is the Michaelis constant (substrate concentration at half of V max), and [S] is the substrate concentration. Eadie-Hofstee plot was used to confirm allosteric kinetics.

pooled HLMs = test: Initial estimation of metabolism enzymes in pooled HLMs; assay type: in vitro ADME, human; conditions: 5 mM ABT preincubated 30 min, 0.4 mg/mL pooled HLMs, 20 µM BYZX
Procedure: Initial estimation of the main metabolic pathway in HLMs was performed using specific inhibitors, or by altering experimental conditions, to identify CYP and non-CYP metabolic pathway. Three groups of incubation of BYZX with pooled HLMs under different additive processes were carried out in parallel to identify whether the metabolites produced were mediated by CYPs or not. In Group I, the incubation mixture including 0.4 mg/mL pooled HLMs protein, 4 µL of NADP/NADPH solution (0.026 M NADP and 0.012 M NADPH in 1% NaHCO3 solution) and 5 mM 1-aminobenzotriazole (ABT, 1 M dissolved in dimethyl sulfoxide, DMSO) were preincubated at 37°C for 30 min, and then 20 µM BYZX was added into the incubation system (n = 2). In Group II, the incubation mixture including 0.4 mg/mL pooled HLMs protein were preincubated at 45°C for 10 min to abolish the activities of the flavin-containing monooxygenases (FMOs), and then 20 µM BYZX was added and precincubated at 37°C for 5 min, and then 4 µL of NADP/NADPH solution was added to initiate the reaction (n = 2). In Group III, the incubation mixture including 0.4 mg/mL pooled HLMs protein and 20 µM BYZX were preincubated at 37°C for 5 min, and then 4 µL of NADP/NADPH solution or […] NaHCO3 solution were added to initiate the reaction (n = 2). […]

CYP3A4 [5] = target: T1, CYP3A4 (Homo sapiens, UniProt P08684); test: Incubation and kinetics with recombinant human CYP3A4; assay type: in vitro ADME; parameters: purchased BD Gentest (Woburn, MA); host or cells: baculovirus-insect cells; conditions: for K m of N-des-ethylation: recombinant CYP3A4 0.04 mg/mL, BYZX fitted to allosteric sigmoidal kinetics
Procedure: (§4) Commercial baculovirus-insect cell-expressed human CYPs (0.1 mg/mL) including CYP1A2, 2A6, 2B6, 2C8, 2C9, 2C19, 2D6, 2E1 and 3A4 were incubated with 20 µM BYZX and 3 µM M2 in the aforementioned method respectively. After 40 min 1 volume of ice cold methanol was added to terminate the reaction. The mixture was vortexed for 1 min and centrifuged at 13 000 rpm for 15 min. 7 µL of the supernatant was injected into the LC-MS system for analysis.
as §3
Target sequence in this assay (P08684 whole entry): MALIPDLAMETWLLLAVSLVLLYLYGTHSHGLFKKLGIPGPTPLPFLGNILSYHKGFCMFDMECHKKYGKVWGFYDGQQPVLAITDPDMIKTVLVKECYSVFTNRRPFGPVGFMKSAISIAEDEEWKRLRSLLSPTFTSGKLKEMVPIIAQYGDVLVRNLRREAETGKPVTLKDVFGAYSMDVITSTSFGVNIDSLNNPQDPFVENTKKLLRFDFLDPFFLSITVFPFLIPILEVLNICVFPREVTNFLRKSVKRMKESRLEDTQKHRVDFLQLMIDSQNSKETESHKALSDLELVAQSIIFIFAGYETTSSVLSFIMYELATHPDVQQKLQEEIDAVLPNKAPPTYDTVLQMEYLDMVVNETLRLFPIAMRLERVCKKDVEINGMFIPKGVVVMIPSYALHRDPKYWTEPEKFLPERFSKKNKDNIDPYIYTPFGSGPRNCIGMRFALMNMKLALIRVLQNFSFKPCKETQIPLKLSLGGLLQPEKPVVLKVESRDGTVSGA

CYP2C8 = target: T2, CYP2C8 (Homo sapiens, UniProt P10632); test: Incubation and kinetics with recombinant human CYP2C8; assay type: in vitro ADME; conditions: for K m of N-des-ethylation: recombinant CYP2C8 0.1 mg/mL
T2 construct: purchased BD Gentest (Woburn, MA); host or cells: baculovirus-insect cells
T2 sequence (P10632 1-490): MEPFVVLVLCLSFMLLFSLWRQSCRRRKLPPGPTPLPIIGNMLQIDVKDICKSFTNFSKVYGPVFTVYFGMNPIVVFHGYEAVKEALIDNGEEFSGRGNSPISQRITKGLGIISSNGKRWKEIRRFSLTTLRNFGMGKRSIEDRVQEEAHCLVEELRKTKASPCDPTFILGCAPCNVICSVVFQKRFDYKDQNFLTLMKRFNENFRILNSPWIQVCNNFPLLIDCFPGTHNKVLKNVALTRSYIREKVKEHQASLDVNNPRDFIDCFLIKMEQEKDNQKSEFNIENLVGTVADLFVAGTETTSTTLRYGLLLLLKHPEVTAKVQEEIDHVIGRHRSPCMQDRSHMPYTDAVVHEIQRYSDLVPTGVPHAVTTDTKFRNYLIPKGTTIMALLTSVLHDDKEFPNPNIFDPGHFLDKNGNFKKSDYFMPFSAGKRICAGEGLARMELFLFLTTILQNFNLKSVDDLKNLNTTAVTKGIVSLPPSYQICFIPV
Procedure: as §4, §3

[6] = tested on: chemical-induced learning and memory impairments; conditions: rodents; cited from earlier work
[7] = Metabolism and kinetics in human liver cytosol; assay type: in vitro ADME
Procedure: as §2, §3
Estimation of the kinetics for BYZX hydrogenation in human liver cytosol was similar to what described above. BYZX in a series of concentration (5.0, 10.0, 20.0, 40.0, 100.0, 150.0, 200.0 µM) were incubated with 0.2 mg/mL of cytosol protein for 20 min at 37°C, and the different formation rates of M2 were assayed for estimating the kinetic parameters.

[8] = target: T3, NADPH-CYP450 oxidoreductase (OR) and cytochrome b5 (cyt b5) (Homo sapiens, UniProt P00167+P16435); test: Incubation with recombinant OR and cyt b5 (Sf9 expression); assay type: in vitro ADME
T3 construct: made in house; host or cells: Sf9 insect cells
Procedure: In order to determine whether OR and cyt b5 are the reductases of BYZX, OR and cyt b5 were expressed individually and together in our previous method using insect cell expression system, Sf9 cell line, [14]. The incubation method was similar to what described above. The production of M2 was determined.

PC12 cells = conditions: cited from earlier work
CYP3A4 [9] = target: T1, CYP3A4; test: in vitro; conditions: pooled human liver microsomes, probe M2 20 µM (formation of M1)
Target sequence in this assay (P08684 2-503): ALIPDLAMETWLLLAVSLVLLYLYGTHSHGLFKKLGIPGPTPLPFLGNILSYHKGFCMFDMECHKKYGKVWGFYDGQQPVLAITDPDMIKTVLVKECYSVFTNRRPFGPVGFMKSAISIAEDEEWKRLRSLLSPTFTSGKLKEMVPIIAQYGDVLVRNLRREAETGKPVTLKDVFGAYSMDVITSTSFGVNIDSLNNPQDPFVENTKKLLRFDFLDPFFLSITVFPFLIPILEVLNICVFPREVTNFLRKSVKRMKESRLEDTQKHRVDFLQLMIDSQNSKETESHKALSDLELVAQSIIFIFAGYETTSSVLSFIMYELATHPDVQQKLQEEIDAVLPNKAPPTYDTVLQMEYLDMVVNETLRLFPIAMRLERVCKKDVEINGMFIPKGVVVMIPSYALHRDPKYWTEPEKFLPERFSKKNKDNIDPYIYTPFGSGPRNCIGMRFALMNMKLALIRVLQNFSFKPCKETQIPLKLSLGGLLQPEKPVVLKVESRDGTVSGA

SMILES: O=c1oc2ccccc2c(O)c1Cc1c(O)c2ccccc2oc1=O [dicoumarol]
- Effect on hydrogenation of BYZX (formation of M2) [1]: dramatic inhibitory effect
- IC50 at 20 min [2]: 1.6 ± 1.3 µM
- IC50 ([3]; 0.2 mg/mL protein, 20 min): 7.7 ± 1.2 µM

SMILES: CCNCc1ccc(/C=C2\Cc3cc(OC)c(OC)cc3C2=O)cc1 [M3]
- Further metabolism of M3 ([4]; human): could be further biotransformed into M1

SMILES: CC(=O)C=Cc1ccccc1 [benzylideneacetone]
- Effect on hydrogenation of BYZX (formation of M2) [1]: significantly suppressed

SMILES: Nn1nnc2ccccc21 [ABT, 1-aminobenzotriazole]
- Effect on formation of desethyl metabolite M3 from BYZX (pooled HLMs): extensively suppressed
- Effect on hydrogenation of BYZX to M2 (pooled HLMs): not significantly inhibited

SMILES: COc1ccc2c(c1)c(CC(=O)O)c(C)n2C(=O)c1ccc(Cl)cc1 [indomethacin]
- IC50 at 20 min [2]: 18.8 ± 1 µM

SMILES: CC(C)(C)NC(=O)[C@H]1CC[C@H]2[C@@H]3CC[C@H]4NC(=O)C=C[C@]4(C)[C@H]3CC[C@]12C [finasteride]
- Effect on hydrogenation of BYZX (formation of M2) ([3]; 20 µM finasteride): no inhibitory effect

SMILES: CCN(CC)Cc1ccc(/C=C2\Cc3cc(OC)c(OC)cc3C2=O)cc1 [BYZX, (E)-2-(4-((diethylamino)methyl)benzylidene)-5,6-dimethoxy-2,3-dihydroinden-one]
- Cl int of N-des-ethylation (M3 formation) (CYP3A4 [5]; recombinant CYP3A4): 6.76 A.U.
- V max of N-des-ethylation (M3 formation) (CYP3A4 [5]; recombinant CYP3A4): 3.3±0.4 A.U.
- K m of N-des-ethylation (CYP3A4 [5]): 488.2 ± 160.2 µM
- Cl int of N-des-ethylation (M3 formation) (CYP2C8; recombinant CYP2C8): 1.59 A.U.
- V max of N-des-ethylation (M3 formation) (CYP2C8; recombinant CYP2C8): 0.099±0.005 A.U.
- K m of N-des-ethylation (CYP2C8): 62.1 ± 8.2 µM
- Effect on chemical-induced learning and memory impairments [6]: significantly improve
- K m of hydrogenation in cytosol relative to HLMs ([7]; cytosol vs HLMs): about 2 times
- Rate of hydrogenation (V max) in human liver cytosol relative to HLMs ([7]; cytosol vs HLMs): about 15 times
- K m of hydrogenation (M2 formation) ([7]; human liver cytosol): 38.9 ± 2.5 µM
- V max of hydrogenation (M2 formation) ([7]; human liver cytosol): 3.56±0.07 nmol/min/mg protein
- Metabolism into M2 in S9 fraction of blank Sf9 cells ([8]; blank Sf9 cells S9): rapidly metabolized into M2
- Rate of formation of M2 in mixture of recombinant OR and cyt b5 ([8]; compared with blank Sf9 S9): significantly decreased
- K m of hydrogenation (M2 formation) ([4]; HLMs): 21.4 ± 1.4 µM
- V max of hydrogenation (M2 formation) ([4]; HLMs): 0.252±0.008 nmol/min/mg protein
- K m of N-des-ethylation [4]: 46.4 ± 5.9 µM
- Cl int of N-des-ethylation (M3 formation) ([4]; human, microsomes): 2.39 A.U.
- V max of N-des-ethylation (M3 formation) ([4]; human, pH 7.4): 0.111±0.008 A.U.
- microsomal CLint ([4]; human, pH 7.4, HLMs, read-out: Cl int of hydrogenation (M2 formation)): 11.8 µL/min/mg
- Effect on apoptosis induced by hydrogen peroxide (PC12 cells): protect

SMILES: CCN(CC)Cc1ccc(CC2Cc3cc(OC)c(OC)cc3C2=O)cc1 (stereo not shown) [M2]
- microsomal CLint (CYP3A4 [5]; human, recombinant human CYP3A4 (baculovirus-insect cell-expressed), recombinant CYP3A4, read-out: Cl int of N-des-ethylation (M1 formation)): 6.01 µL/min/mg
- V max of N-des-ethylation (M1 formation) (CYP3A4 [5]; recombinant CYP3A4): 0.392±0.016 nmol/min/mg protein
- K m of N-des-ethylation (CYP3A4 [5]): 65.2 ± 7.2 µM
- Cl int of CYP3A4 compared with that of CYP2C8 (M1 formation) (CYP3A4 [5]; recombinant CYP3A4 vs CYP2C8): over 2 folds
- microsomal CLint (CYP2C8; human, recombinant human CYP2C8 (baculovirus-insect cell-expressed), recombinant CYP2C8, read-out: Cl int of N-des-ethylation (M1 formation)): 2.58 µL/min/mg
- V max of N-des-ethylation (M1 formation) (CYP2C8; recombinant CYP2C8): 0.370±0.024 nmol/min/mg protein
- K m of N-des-ethylation (CYP2C8): 143.2 ± 17.7 µM
- V max of N-des-ethylation (M1 formation) ([4]; HLMs): 0.209±0.010 nmol/min/mg protein
- K m of N-des-ethylation [4]: 105.7 ± 10.9 µM
- microsomal CLint ([4]; human, pH 7.4, HLMs, read-out: Cl int of N-des-ethylation (M1 formation)): 1.98 µL/min/mg

SMILES: CC(=O)N1CCN(c2ccc(OCC3COC(Cn4ccnc4)(c4ccc(Cl)cc4Cl)O3)cc2)CC1 (stereo not shown) [ketoconazole]
- IC50 (CYP3A4 [9]): 9.8 ± 1.2 µM
